Patent publication US8450373B2, “Alpha ketoamide compounds as cysteine protease inhibitors” (Virobay, Inc., priority 2005, dated 2013)

melting point: 152.5 to 153.5 °C
SMILES: CC[C@H](NC(=O)[C@H](CCS(C)(=O)=O)N[C@@H](c1ccc(F)cc1)C(F)(F)F)C(=O)C(=O)NC1CC1 [Table I Cpd. 78, N-cyclopropyl-3S-{4-methanesulfonyl-2S-[2,2,2-trifluoro-1S-(4-fluoro-phenyl)-ethylamino]-butyrylamino}-2-oxo-pentanamide]
